Like-named read-outs stand apart in the source and are kept apart here. Each block holds one compound with its values, some of them ahead of it.
Tests used:
Type in all cases: in vitro ADME
[1] = Metabolic stability in pooled human liver microsomes; settings: pooled human liver microsomes 0.5 mg/mL, 1 μM compound, 37° C.
Protocol: Pooled human liver microsomes in PBS at a concentration of 0.5 mg/mL was incubated with or without 1 mM NADPH for 70 min at 37° C. Test compound was added after 10 minutes to a final concentration of 1 μM. Samples were withdrawn at 0, 5, 15 and 60 minutes and added to test tubes containing acetonitrile, to stop the reaction, and with terfenadine, used as internal standard. After centrifugation at 10 000×g for 5 minutes the supernatant was diluted 1:1 with 1% formic acid. Samples were separated on a reverse phase column and detected by triple quadrupole MSMS (Agilant model 6540). The concentration of the parent compound at the different time points was measured with an external standard curve using terfenadine as internal standard and the initial metabolic rate in the presence or absence of NADPH calculated.

CYP2C9 [2] = target: T1, CYP2C9 (Homo sapiens, UniProt P11712); test: CYP inhibition in human liver microsomes; parameters: using isoform-specific substrates incubated with human liver microsomes; tissue Eurofins protocol ITEMG232; host or cells: human liver microsomes; settings: probe diclofenac, substrate diclofenac, read-out: CYP2C9 Inh %
Protocol: (§1) The following substrates were used; CYP1 Å phenacetin, […] bupropion, CYP2C8 paclitaxel and amodiaquine, CYP2C9 diclofenac, CYP2C19 omeprazole, CYP2D6 dextromethorphan, CYP3 Å midazolam and testosterone.
(§2) At the end of the incubation, the formation of metabolite was monitored by HPLC-MS/MS as the peak area response.

CYP1A2 = target: T2, CYP1A2 (Homo sapiens, UniProt P05177); test: in vitro; settings: human liver microsomes, substrate phenacetin, read-out: CYP1A2 Inh %
T2 construct: using isoform-specific substrates incubated with human liver microsomes; tissue Eurofins protocol ITEMG232; host or cells: human liver microsomes
Protocol: as §1, §2

CYP3A4&5 = test: CYP inhibition in human liver microsomes (testosterone); settings: probe testosterone, substrate testosterone, read-out: CYP3A4&5 testosterone Inh %
Protocol: as §1, §2

CYP3A4 [3] = target: T3, CYP3A4 (Homo sapiens, UniProt P08684); test: CYP inhibition in human liver microsomes (midazolam); parameters: using isoform-specific substrates incubated with human liver microsomes; tissue Eurofins protocol ITEMG232; host or cells: human liver microsomes; settings: probe midazolam, substrate midazolam, read-out: CYP3A4 midazolam Inh %
Protocol: as §1, §2

CYP2B6 = target: T4, CYP2B6 (Homo sapiens, UniProt P20813); test: CYP inhibition in human liver microsomes; settings: probe bupropion, substrate bupropion, read-out: CYP2B6 Inh %
T4 construct: using isoform-specific substrates incubated with human liver microsomes; tissue Eurofins protocol ITEMG232; host or cells: human liver microsomes
T4 sequence (P20813 1-491): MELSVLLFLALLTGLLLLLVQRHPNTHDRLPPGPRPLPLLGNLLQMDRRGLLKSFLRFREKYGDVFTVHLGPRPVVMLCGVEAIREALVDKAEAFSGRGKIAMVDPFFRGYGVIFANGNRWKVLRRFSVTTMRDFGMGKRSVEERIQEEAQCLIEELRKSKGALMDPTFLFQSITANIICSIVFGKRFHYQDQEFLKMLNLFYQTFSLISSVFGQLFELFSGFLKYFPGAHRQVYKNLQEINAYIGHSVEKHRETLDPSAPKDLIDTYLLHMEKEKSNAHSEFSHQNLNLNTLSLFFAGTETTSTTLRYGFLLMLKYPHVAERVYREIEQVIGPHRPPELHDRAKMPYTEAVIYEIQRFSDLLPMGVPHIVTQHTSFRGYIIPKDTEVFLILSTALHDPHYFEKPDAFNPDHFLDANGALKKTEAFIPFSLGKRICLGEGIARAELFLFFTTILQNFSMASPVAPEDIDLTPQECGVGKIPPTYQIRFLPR
Protocol: as §1, §2

CYP2C8 = target: T5, CYP2C8 (Homo sapiens, UniProt P10632); test: CYP inhibition in human liver microsomes; settings: probe paclitaxel and amodiaquine, substrates paclitaxel and amodiaquine, read-out: CYP2C8 Inh %
T5 construct: using isoform-specific substrates incubated with human liver microsomes; tissue Eurofins protocol ITEMG232; host or cells: human liver microsomes
T5 sequence (P10632 1-490): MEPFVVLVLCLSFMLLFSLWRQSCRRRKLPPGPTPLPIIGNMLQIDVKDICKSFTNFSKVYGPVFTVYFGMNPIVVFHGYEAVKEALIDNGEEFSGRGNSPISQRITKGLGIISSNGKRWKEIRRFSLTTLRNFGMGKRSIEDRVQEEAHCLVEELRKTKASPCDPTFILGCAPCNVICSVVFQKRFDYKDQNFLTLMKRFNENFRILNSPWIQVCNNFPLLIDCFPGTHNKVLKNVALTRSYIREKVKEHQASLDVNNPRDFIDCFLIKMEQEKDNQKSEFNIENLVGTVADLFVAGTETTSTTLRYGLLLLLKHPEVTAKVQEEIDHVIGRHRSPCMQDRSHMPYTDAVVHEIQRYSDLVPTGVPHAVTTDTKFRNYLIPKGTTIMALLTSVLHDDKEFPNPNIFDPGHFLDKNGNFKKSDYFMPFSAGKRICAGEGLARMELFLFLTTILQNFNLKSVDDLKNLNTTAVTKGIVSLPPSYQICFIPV
Protocol: as §1, §2

CYP2C19 = target: T6, CYP2C19 (Homo sapiens, UniProt P33261); test: CYP inhibition in human liver microsomes; settings: probe omeprazole, substrate omeprazole, read-out: CYP2C19 Inh %
T6 construct: using isoform-specific substrates incubated with human liver microsomes; tissue Eurofins protocol ITEMG232; host or cells: human liver microsomes
Protocol: as §1, §2

CYP2D6 = target: T7, CYP2D6 (Homo sapiens, UniProt P10635); test: CYP inhibition in human liver microsomes; settings: probe dextromethorphan, substrate dextromethorphan, read-out: CYP2D6 Inh %
T7 construct: tissue Eurofins protocol ITEMG232; host or cells: human liver microsomes
Protocol: as §1, §2

[4] = Metabolic hydrolysis found during development of C21
CYP3A4 [5] = target: T3, CYP3A4; test: CYP inhibition found during development of C21
CYP2C9 [6] = target: T1, CYP2C9; test: CYP inhibition found during development of C21
[7] = with 1 mM NADPH, read-out: T1/2, + NaDPH
[8] = without NADPH, read-out: T1/2, no NaDPH

T1 sequence (P11712 whole entry, canonical isoform): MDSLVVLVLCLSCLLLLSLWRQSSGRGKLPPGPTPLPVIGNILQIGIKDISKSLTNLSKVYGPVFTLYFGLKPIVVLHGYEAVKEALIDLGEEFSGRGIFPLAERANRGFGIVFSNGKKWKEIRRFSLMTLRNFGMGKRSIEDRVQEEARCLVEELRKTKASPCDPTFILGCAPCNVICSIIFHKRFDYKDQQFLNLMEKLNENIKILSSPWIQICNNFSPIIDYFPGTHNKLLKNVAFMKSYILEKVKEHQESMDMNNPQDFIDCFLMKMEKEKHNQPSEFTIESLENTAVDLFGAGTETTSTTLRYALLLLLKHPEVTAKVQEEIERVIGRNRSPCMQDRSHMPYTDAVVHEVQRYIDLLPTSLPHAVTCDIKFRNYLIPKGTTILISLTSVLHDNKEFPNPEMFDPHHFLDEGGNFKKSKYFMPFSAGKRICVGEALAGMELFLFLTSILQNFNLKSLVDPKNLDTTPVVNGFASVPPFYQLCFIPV
T3 sequence (P08684 whole entry, canonical isoform): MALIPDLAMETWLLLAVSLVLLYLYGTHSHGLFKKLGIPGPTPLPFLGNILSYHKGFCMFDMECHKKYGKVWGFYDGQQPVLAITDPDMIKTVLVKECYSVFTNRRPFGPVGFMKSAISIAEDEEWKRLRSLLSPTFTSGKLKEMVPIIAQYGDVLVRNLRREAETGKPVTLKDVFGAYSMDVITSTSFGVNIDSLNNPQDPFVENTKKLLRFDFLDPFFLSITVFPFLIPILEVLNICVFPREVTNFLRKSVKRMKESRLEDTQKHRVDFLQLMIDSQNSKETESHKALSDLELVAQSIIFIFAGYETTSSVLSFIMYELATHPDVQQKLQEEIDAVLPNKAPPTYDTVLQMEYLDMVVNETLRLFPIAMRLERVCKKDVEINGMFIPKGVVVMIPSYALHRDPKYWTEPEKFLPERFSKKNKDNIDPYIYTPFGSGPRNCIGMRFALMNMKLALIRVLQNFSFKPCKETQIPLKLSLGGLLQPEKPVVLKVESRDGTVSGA
T2 sequence (P05177 whole entry, canonical isoform): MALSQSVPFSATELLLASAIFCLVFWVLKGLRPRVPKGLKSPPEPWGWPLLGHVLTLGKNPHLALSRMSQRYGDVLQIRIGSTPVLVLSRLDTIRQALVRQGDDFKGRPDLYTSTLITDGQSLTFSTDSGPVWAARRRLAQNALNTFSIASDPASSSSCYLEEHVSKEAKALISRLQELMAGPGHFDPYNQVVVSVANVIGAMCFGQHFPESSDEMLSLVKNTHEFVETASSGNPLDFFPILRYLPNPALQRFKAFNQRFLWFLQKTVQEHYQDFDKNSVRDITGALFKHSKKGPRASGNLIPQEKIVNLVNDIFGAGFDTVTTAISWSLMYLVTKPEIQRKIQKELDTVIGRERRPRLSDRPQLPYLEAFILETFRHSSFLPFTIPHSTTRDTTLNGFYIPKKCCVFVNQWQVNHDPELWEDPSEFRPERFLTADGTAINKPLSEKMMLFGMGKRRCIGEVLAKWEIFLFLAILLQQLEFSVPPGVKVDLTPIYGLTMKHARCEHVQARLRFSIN
T6 sequence (P33261 whole entry, canonical isoform): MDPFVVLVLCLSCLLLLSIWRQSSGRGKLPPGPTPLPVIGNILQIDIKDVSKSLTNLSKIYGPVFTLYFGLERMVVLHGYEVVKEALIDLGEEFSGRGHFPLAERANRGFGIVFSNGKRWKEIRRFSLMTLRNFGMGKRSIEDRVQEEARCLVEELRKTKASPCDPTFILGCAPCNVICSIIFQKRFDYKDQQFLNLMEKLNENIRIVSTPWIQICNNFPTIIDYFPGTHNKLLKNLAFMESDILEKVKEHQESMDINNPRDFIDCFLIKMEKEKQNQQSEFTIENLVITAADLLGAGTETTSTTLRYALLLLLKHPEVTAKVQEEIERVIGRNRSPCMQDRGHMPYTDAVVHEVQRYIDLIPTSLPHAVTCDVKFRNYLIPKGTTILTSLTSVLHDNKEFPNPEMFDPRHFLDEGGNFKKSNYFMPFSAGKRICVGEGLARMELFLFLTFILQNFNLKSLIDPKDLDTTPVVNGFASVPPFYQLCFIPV
T7 sequence (P10635 whole entry): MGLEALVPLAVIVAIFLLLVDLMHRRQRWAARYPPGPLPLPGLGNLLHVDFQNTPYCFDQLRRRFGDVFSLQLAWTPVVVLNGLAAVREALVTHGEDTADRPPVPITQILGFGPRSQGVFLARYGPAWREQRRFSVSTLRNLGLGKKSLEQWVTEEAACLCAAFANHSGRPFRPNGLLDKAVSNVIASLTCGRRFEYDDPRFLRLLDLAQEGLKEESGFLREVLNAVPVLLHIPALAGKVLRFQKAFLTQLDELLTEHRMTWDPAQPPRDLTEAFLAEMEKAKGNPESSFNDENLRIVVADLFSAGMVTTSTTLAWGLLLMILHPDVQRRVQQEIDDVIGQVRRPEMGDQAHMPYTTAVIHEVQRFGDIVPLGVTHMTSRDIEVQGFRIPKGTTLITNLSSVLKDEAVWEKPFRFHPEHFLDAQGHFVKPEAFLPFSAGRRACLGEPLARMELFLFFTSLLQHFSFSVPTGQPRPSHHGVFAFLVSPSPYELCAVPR

half-life at 1 μM [1, 7]: > 1 h
half-life at 1 μM [1, 8]: > 1 h
inhibition at 10 µM (CYP2C9 [2]): 49.4%
inhibition at 10 µM (CYP1A2): 12.3%
inhibition at 10 µM (CYP3A4&5): 40.1%
inhibition at 10 µM (CYP3A4 [3]): 40.1%
inhibition at 10 µM (CYP2B6): 22.4%
inhibition at 10 µM (CYP2C8): 33.9%
inhibition at 10 µM (CYP2C19): 72.7%
inhibition at 10 µM (CYP2D6): 28.3%
Compound: Cc1nccn1Cc1ccc(-c2cc(CC(C)C)sc2S(=O)(=O)Nc2ncccn2)cc1Cl [Example 1, 3-[3-Chloro-4-[(2-methylimidazol-1-yl)methyl]phenyl]-5-isobutyl-N-pyrimidin-2-yl-thiophene-2-sulfonamide]

inhibition at 10 µM (CYP3A4&5): 94%
inhibition of CYP 3A4 (in words) (CYP3A4 [5]): potent inhibitor
inhibition of CYP 2C9 (in words) (CYP2C9 [6]): potent inhibitor
Compound: CCCCOC(=O)NS(=O)(=O)c1sc(CC(C)C)cc1-c1ccc(Cn2ccnc2)cc1 [Example C21, N-butyloxycarbonyl-3-(4-imidazol-1-ylmethylphenyl)-5-isobutylthiophene-2-sulfon-amide]
metabolic hydrolysis (in words) [4]: rapidly hydrolysed to an inactive sulfonamide metabolite

half-life at 1 μM [1, 7]: 0.883 h
half-life at 1 μM [1, 8]: > 1 h
Compound: Cc1cc(-c2cc(CC(C)C)sc2S(=O)(=O)Nc2ccccn2)ccc1Cn1ccnc1C [Example 3, 5-Isobutyl-3-[3-methyl-4-[(2-methylimidazol-1-yl)methyl]phenyl]-N-(2-pyridyl)thiophene-2-sulfonamide]

half-life at 1 μM [1, 7]: 1 h
half-life at 1 μM [1, 8]: > 1 h
Compound: Cc1nccn1Cc1ccc(-c2cc(CC(C)C)sc2S(=O)(=O)Nc2ccccn2)cc1Cl [Example 2, 3-[3-Chloro-4-[(2-methylimidazol-1-yl)methyl]phenyl]-5-isobutyl-N-(2-pyridyl)thiophene-2-sulfonamide]
